Reference: PMC6199744, “Development of Chemical Proteomics for the Folateome and Analysis of the Kinetoplastid Folateome” (ACS Infectious Diseases, 2018)
Read-outs that look alike come from different tables or passages of the source.

Legend:
Assay type in all cases: binding
[1] = biological target: T1, HeLa cell extract proteins (Homo sapiens, UniProt O94855)
T1 construct: endogenous in cells; host or cells: HeLa cell extract
T1 sequence (O94855 1-1032): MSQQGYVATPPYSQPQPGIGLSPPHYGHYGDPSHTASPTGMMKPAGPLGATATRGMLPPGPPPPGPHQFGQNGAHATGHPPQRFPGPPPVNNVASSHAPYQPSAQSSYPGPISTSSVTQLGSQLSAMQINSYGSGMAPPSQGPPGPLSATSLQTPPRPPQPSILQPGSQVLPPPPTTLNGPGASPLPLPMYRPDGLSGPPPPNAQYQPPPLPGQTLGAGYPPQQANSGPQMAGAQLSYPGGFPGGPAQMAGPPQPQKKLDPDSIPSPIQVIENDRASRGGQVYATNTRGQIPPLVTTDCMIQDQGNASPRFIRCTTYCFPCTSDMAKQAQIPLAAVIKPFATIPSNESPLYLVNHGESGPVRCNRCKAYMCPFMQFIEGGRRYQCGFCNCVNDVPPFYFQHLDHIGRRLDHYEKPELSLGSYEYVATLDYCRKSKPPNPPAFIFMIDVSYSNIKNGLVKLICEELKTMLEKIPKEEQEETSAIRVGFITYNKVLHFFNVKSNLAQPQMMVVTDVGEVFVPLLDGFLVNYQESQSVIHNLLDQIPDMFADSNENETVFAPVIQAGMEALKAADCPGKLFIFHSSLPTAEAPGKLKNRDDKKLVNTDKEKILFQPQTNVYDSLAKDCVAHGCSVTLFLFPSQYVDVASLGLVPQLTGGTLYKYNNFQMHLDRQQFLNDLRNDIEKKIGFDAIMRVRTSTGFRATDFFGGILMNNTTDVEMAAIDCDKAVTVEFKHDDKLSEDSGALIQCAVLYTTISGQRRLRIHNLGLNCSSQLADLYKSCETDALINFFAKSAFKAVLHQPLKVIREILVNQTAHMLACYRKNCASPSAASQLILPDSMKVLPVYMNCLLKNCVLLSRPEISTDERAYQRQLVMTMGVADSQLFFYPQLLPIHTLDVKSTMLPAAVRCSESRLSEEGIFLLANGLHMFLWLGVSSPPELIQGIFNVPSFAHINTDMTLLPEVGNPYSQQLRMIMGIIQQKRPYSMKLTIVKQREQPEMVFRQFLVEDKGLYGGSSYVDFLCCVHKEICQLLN

[2] = biological target: T2, HeLa cell extract proteins (Homo sapiens, UniProt Q9UHD8)
T2 construct: endogenous in cells; host or cells: HeLa cell extract
T2 sequence (Q9UHD8 1-586): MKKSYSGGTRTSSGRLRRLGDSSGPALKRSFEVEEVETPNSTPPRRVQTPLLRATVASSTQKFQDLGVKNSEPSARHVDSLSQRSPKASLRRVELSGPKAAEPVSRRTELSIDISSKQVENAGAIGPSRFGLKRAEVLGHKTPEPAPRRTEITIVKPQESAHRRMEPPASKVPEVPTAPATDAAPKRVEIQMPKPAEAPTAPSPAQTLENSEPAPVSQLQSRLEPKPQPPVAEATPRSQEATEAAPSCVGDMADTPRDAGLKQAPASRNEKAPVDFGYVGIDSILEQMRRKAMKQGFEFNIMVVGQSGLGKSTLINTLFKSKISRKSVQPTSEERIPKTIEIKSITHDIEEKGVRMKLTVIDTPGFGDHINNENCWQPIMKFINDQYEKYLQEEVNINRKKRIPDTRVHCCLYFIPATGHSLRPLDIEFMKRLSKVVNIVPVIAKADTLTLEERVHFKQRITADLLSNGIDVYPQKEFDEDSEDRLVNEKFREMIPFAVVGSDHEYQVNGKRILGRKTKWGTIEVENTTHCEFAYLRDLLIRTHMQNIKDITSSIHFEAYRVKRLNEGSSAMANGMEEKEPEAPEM

[3] = biological target: T3, HeLa cell extract proteins (Homo sapiens, UniProt Q10570)
T3 construct: endogenous in cells; host or cells: HeLa cell extract
T3 sequence (Q10570 1-1443): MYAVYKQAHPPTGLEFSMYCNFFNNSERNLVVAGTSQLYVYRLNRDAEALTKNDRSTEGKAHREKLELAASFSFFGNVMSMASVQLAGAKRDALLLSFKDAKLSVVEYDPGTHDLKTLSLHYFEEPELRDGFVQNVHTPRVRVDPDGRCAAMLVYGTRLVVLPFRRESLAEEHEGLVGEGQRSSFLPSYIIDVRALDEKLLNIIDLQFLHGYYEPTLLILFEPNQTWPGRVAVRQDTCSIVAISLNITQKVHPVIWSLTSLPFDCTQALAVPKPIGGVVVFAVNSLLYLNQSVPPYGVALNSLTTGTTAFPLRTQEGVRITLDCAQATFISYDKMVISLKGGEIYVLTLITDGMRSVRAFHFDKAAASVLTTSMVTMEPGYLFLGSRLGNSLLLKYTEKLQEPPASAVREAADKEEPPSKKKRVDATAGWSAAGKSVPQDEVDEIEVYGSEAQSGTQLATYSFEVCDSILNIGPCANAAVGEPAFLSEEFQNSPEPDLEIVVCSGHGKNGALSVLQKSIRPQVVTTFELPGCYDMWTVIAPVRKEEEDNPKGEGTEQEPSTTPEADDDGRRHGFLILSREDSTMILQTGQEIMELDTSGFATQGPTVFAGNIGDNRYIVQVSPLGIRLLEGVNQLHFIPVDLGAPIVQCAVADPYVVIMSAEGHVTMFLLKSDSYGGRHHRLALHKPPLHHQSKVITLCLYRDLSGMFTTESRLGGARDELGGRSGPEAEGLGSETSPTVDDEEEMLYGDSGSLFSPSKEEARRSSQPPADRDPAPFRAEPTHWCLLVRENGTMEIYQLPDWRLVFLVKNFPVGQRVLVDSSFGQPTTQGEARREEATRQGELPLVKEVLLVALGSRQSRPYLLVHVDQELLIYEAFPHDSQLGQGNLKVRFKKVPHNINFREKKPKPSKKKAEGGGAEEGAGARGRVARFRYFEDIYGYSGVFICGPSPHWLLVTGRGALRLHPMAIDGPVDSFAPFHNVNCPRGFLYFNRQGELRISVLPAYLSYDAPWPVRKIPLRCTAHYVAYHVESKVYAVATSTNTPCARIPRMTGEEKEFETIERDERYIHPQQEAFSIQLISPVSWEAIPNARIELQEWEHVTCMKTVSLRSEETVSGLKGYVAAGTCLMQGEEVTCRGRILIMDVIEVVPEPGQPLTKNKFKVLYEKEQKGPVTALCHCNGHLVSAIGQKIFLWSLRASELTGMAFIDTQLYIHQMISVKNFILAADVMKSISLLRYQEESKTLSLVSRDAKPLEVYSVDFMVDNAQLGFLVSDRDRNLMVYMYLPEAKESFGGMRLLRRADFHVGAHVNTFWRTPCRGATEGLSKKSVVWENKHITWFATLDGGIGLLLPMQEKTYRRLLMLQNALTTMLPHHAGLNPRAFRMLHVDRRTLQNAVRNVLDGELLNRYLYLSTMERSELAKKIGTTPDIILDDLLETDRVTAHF

SMILES | fold changes relative to vehicle control ([1]; HeLa, captured protein SEC24D) | fold changes relative to vehicle control ([2]; protein SEPT9, HeLa) | fold changes relative to vehicle control ([3]; HeLa, captured protein CPSF1) | fold changes relative to vehicle control [1] | fold changes relative to vehicle control [2] | fold changes relative to vehicle control [3]
NCCOCCOCC(=O)Nc1nc2ncc(CNc3ccc(C(=O)NC(CCC(=O)O)C(=O)O)cc3)nc2c(=O)[nH]1 (stereo not drawn) [compound 6] | 1.15 | 1 | 0.97 | – | – | –
Nc1nc2c(c(=O)[nH]1)N(C=O)C(CNc1ccc(C(=O)N[C@@H](CCC(=O)O)C(=O)O)cc1)CN2 (stereo partly drawn) [LEU, leucovorin] | 1.12 | 0.93 | 0.95 | – | – | –
NCCCNc1ccc(C(=O)NC(CCC(=O)O)C(=O)O)cc1 (stereo not drawn) [compound 7] | 1.04 | 0.92 | 0.93 | – | – | –
Nc1nc2[nH]cc(CCc3ccc(C(=O)N[C@@H](CCC(=O)O)C(=O)O)cc3)c2c(=O)[nH]1 [PTX, pemetrexed] | – | – | – | 1.09 | 0.96 | 0.88
